The values below come from ChEMBL document CHEMBL5550090, “Synthesis and biological evaluation of 1H-pyrrolo[3,2-g]isoquinolines” (Bioorg Med Chem, 2024).

For assay [1], the target named is T1, Serine/threonine-protein kinase haspin (Homo sapiens, UniProt Q8TF76).
T1 sequence (Q8TF76 whole entry): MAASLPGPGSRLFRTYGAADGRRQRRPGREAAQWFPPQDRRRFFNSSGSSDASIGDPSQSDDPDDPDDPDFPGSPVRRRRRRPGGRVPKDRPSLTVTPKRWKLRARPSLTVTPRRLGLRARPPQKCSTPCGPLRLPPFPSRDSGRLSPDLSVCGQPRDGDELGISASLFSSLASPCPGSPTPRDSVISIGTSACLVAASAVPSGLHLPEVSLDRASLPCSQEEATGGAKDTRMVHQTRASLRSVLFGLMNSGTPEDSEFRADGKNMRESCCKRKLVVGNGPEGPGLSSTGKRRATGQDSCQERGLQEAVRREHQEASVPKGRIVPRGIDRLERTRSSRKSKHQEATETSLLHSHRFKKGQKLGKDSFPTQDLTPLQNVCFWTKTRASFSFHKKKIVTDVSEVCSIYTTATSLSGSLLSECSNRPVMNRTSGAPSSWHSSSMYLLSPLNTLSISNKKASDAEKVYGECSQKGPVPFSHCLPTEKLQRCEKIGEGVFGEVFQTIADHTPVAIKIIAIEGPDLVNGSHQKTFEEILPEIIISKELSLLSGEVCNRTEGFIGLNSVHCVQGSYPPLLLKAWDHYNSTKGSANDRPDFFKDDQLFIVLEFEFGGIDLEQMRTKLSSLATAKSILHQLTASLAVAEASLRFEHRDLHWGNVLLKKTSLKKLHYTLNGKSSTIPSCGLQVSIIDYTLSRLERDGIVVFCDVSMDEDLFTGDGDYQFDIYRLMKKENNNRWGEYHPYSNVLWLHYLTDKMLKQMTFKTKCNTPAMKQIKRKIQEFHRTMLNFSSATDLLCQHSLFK
Briefly: Inhibition of recombinant human Haspin kinase domain (470 to 798 residues) expressed in bacteria using histone H3 (1 to 21) peptide as substrate incubated for 30 mins in presence of ATP by ADP-Glo kinase assay. In general terms: ADP-Glo turns the ADP formed in a reaction into a luminescent signal.

The target in assay [2] is Dual specificity protein kinase CLK1 (Mus musculus) (UniProt P22518). Briefly: Inhibition of recombinant mouse CLK1 expressed in bacteria assessed as enzyme residual activity using GRSRSRSRSRSR as substrate at 10 uM incubated for 30 mins in presence of ATP by ADP-Glo kinase assay.
Chain of Dual specificity protein kinase CLK1 (Mus musculus) (P22518 whole entry, looked up): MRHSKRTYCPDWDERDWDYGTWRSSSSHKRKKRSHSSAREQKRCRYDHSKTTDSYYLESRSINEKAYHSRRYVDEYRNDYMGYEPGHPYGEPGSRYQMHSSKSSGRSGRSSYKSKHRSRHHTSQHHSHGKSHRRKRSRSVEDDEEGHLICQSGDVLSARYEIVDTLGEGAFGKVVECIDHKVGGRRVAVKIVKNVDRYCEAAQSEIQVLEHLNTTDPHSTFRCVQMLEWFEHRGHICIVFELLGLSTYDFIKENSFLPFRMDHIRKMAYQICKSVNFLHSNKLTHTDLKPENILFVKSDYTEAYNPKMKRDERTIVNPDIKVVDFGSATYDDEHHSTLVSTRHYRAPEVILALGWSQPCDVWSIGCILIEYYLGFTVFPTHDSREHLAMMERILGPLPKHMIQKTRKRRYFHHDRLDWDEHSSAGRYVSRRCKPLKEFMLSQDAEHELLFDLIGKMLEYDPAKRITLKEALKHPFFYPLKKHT
The target is the same in assay [3]. Briefly: Inhibition of recombinant mouse CLK1 expressed in bacteria assessed as enzyme residual activity using GRSRSRSRSRSR as substrate at 1 uM incubated for 30 mins in presence of ATP by ADP-Glo kinase assay.
For assay [4], the target named is Dual specificity protein kinase CLK1 (Mus musculus, UniProt P22518). Briefly: Inhibition of recombinant mouse CLK1 expressed in bacteria using GRSRSRSRSRSR as substrate incubated for 30 mins in presence of ATP by ADP-Glo kinase assay.
Chain of Dual specificity protein kinase CLK1 (P22518 whole entry, the tested form may be a part): as the sequence (P22518 whole entry, looked up) above
Assay [5] concerns the target Dual specificity tyrosine-phosphorylation-regulated kinase 1A (Rattus norvegicus) (UniProt Q63470). Briefly: Inhibition of recombinant rat DYRK1A kinase domain (1 to 499 residues) expressed in bacteria assessed as enzyme residual activity using KKISGRLSPIMTEQ as substrate at 10 uM incubated for 30 mins in presence of ATP by ADP-Glo kinase assay.
The target is the same in assay [6]. Briefly: Inhibition of recombinant rat DYRK1A kinase domain (1 to 499 residues) expressed in bacteria assessed as enzyme residual activity using KKISGRLSPIMTEQ as substrate at 1 uM incubated for 30 mins in presence of ATP by ADP-Glo kinase assay.
Assay [7] deals with Dual specificity tyrosine-phosphorylation-regulated kinase 1A (Rattus norvegicus, UniProt Q63470). Briefly: Inhibition of recombinant rat DYRK1A kinase domain (1 to 499 residues) expressed in bacteria using KKISGRLSPIMTEQ as substrate incubated for 30 mins in presence of ATP by ADP-Glo kinase assay.
Assay [8] addresses T2, CDK9/cyclin T1 (Homo sapiens) (UniProt O60563+P50750). Briefly: Inhibition of human recombinant CDK9/cyclin T expressed in baculovirus-infected Sf9 cells assessed as enzyme residual activity using YSPTSPSYSPTSPSYSPTSPSKKKK as substrate at 10 uM incubated for 30 mins in presence of ATP by ADP-Glo kinase assay.
For assay [9], the target named is T2, CDK9/cyclin T1 (Homo sapiens). Briefly: Inhibition of human recombinant CDK9/cyclin T expressed in baculovirus-infected Sf9 cells assessed as enzyme residual activity using YSPTSPSYSPTSPSYSPTSPSKKKK as substrate at 1 uM incubated for 30 mins in presence of ATP by ADP-Glo kinase assay.
A further assay deals with CDK9/cyclin T1 (Homo sapiens, UniProt P50750). Briefly: Inhibition of human recombinant CDK9/cyclin T expressed in baculovirus-infected Sf9 cells using YSPTSPSYSPTSPSYSPTSPSKKKK as substrate incubated for 30 mins in presence of ATP by ADP-Glo kinase assay.
Chain of CDK9/cyclin T1 (O60563 whole entry): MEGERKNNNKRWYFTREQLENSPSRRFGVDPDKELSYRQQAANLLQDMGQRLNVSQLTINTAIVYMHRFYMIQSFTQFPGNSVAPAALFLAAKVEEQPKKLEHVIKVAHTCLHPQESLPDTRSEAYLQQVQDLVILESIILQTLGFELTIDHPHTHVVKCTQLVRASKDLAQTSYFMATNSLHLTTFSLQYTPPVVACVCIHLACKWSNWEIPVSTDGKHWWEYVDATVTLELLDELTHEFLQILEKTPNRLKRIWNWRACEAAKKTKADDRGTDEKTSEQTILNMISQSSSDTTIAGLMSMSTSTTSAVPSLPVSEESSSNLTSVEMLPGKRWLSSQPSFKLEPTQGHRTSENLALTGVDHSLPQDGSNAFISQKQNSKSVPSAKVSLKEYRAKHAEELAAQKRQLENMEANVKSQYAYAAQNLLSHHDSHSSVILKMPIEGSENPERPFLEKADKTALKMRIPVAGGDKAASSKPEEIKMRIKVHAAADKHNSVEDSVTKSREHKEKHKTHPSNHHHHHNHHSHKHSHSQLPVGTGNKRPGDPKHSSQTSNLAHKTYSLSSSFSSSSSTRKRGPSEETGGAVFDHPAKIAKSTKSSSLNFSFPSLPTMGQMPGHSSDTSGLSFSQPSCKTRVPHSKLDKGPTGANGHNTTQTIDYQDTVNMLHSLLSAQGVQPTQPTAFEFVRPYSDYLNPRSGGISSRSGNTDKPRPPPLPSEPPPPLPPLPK
Chain of CDK9/cyclin T1 (P50750 whole entry): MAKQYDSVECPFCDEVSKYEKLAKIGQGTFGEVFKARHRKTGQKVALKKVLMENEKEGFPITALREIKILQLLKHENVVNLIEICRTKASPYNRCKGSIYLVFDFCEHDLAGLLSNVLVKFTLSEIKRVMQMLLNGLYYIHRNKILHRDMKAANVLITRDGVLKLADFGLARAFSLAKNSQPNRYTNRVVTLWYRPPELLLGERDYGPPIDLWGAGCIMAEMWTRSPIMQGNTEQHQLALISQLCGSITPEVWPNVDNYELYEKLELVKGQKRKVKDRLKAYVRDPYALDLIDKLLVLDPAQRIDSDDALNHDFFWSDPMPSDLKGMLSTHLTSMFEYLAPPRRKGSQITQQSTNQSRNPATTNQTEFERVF
The target of assay [10] is Glycogen synthase kinase-3 beta (Homo sapiens) (UniProt P49841). Briefly: Inhibition of human recombinant GSK-3 beta expressed in baculovirus-infected Sf9 cells assessed as enzyme residual activity using YRRAAVPPSPSLSRHSSPHQSpEDEEE as substrate at 10 uM incubated for 30 mins in presence of ATP by ADP-Glo kinase assay.
Chain of Glycogen synthase kinase-3 beta (Homo sapiens) (P49841 whole entry, looked up): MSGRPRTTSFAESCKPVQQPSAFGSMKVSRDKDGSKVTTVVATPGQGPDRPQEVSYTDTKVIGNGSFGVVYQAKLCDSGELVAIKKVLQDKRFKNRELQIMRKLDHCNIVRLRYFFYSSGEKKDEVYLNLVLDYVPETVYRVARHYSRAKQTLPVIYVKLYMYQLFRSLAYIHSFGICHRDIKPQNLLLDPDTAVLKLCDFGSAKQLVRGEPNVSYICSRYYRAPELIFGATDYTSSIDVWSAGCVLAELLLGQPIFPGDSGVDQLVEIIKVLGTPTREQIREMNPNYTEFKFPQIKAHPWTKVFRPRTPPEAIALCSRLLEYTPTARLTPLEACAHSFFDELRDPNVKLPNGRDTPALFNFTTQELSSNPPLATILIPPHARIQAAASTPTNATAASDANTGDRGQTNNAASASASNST
Assay [11] has the same target. Briefly: Inhibition of human recombinant GSK-3 beta expressed in baculovirus-infected Sf9 cells assessed as enzyme residual activity using YRRAAVPPSPSLSRHSSPHQSpEDEEE as substrate at 1 uM incubated for 30 mins in presence of ATP by ADP-Glo kinase assay.
Assay [12] deals with Casein kinase I isoform epsilon (Homo sapiens) (UniProt P49674). Briefly: Inhibition of human recombinant CK1 epsilon expressed in baculovirus-infected Sf9 cells assessed as enzyme residual activity using RRKHAAIGSpAYSITA as substrate at 10 uM incubated for 30 mins in presence of ATP by ADP-Glo kinase assay.
Chain of Casein kinase I isoform epsilon (Homo sapiens) (P49674 whole entry, looked up, canonical isoform): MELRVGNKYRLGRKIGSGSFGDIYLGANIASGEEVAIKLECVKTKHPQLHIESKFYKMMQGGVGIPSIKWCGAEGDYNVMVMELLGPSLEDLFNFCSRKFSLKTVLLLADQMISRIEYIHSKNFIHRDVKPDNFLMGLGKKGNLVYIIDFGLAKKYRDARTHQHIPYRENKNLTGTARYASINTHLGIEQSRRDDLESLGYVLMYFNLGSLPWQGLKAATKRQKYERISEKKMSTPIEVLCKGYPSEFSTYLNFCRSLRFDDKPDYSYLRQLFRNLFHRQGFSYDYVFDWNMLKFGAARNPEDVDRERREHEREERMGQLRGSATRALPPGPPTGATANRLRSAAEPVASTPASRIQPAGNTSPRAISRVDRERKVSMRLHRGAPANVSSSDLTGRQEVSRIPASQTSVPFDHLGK
Assay [13] has the same target. Briefly: Inhibition of human recombinant CK1 epsilon expressed in baculovirus-infected Sf9 cells assessed as enzyme residual activity using RRKHAAIGSpAYSITA as substrate at 1 uM incubated for 30 mins in presence of ATP by ADP-Glo kinase assay.
Assay [14] concerns the target T3, Cyclin-dependent kinase 5/CDK5 activator 1 (Homo sapiens) (UniProt Q00535+Q15078). Briefly: Inhibition of human recombinant CDK5/p25 expressed in bacteria assessed as enzyme residual activity using histone H1 as substrate at 10 uM incubated for 30 mins in presence of ATP by ADP-Glo kinase assay.
For assay [15], the target named is T3, Cyclin-dependent kinase 5/CDK5 activator 1 (Homo sapiens). Briefly: Inhibition of human recombinant CDK5/p25 expressed in bacteria assessed as enzyme residual activity using histone H1 as substrate at 1 uM incubated for 30 mins in presence of ATP by ADP-Glo kinase assay.
Assay [16] concerns the target T4, Serine/threonine-protein kinase pim-1 (Homo sapiens, UniProt P11309). Briefly: Inhibition of human recombinant PIM-1 expressed in bacteria assessed as enzyme residual activity using histone H1 as substrate at 10 uM incubated for 30 mins in presence of ATP by ADP-Glo kinase assay.
Target sequence in this assay (P11309 whole entry, looked up): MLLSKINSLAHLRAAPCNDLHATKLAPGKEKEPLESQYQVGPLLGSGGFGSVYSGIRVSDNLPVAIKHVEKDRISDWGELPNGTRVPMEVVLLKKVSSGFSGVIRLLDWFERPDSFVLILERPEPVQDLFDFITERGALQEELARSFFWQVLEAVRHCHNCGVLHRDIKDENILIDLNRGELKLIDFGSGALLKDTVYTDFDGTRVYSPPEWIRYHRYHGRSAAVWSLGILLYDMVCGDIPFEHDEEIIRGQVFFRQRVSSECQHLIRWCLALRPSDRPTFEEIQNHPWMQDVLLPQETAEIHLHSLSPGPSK
In assay [17] the target is T4, Serine/threonine-protein kinase pim-1. Briefly: Inhibition of human recombinant PIM-1 expressed in bacteria assessed as enzyme residual activity using histone H1 as substrate at 1 uM incubated for 30 mins in presence of ATP by ADP-Glo kinase assay.
Target sequence in this assay (P11309 whole entry, looked up): as above
The species entered for a further assay is Homo sapiens. Briefly: Selectivity index, ratio of IC50 for human recombinant CDK9/cyclin T expressed in baculovirus-infected Sf9 cells to IC50 for recombinant human Haspin kinase domain (470 to 798 residues) expressed in bacteria.
The test system of assay [18] is U2OS. Briefly: Induction of cell cycle arrest in human U2OS cells assessed as proportion of cells at G1 phase at 2.5 uM incubated for 24 hrs by flow cytometry (reference value: 45%). The assay is classed as functional.
For assay [19], the system named is U2OS. Briefly: Induction of cell cycle arrest in human U2OS cells assessed as proportion of cells at S phase at 2.5 uM incubated for 24 hrs by flow cytometry (reference value: 39%). The class given is functional. Background: Flow cytometry measures light scatter and fluorescence of single cells or particles in a stream.
The test system of assay [20] is U2OS. Briefly: Induction of cell cycle arrest in human U2OS cells assessed as proportion of cells at G2/M phase at 2.5 uM incubated for 24 hrs by flow cytometry (reference value: 16%). The class given is functional.
For assay [21], the system named is U2OS. Briefly: Induction of cell cycle arrest in human U2OS cells assessed as proportion of cells at G1 phase at 5 uM incubated for 24 hrs by flow cytometry (reference value: 45%). The assay is classed as functional.
Assay [22] deals with U2OS. Briefly: Induction of cell cycle arrest in human U2OS cells assessed as proportion of cells at S phase at 5 uM incubated for 24 hrs by flow cytometry (reference value: 39%). The assay is classed as functional.
For assay [23], the system named is U2OS. Briefly: Induction of cell cycle arrest in human U2OS cells assessed as proportion of cells at G2/M phase at 5 uM incubated for 24 hrs by flow cytometry (reference value: 16%). The assay is classed as functional.
Another assay has as its system TERT-RPE1. Briefly: cells. The conditions noted are these: Homo sapiens, RPE-1, 48 h.
A further assay has as its system HBL-100. Briefly: cells. The following applies: Homo sapiens, HBL-100, 48 h.
The next assay concerns HCT-116. Briefly: cells. The following applies: Homo sapiens, HCT-116, 48 h.
The test system of the next assay is SH-SY5Y. Briefly: cells. The conditions noted are these: Homo sapiens, 48 h.
Assay [24] relates to U2OS. Briefly: cells. The conditions noted are these: Homo sapiens, 48 h.
Description: Antiproliferative activity against human U2OS cells assessed as reduction in cell viability incubated for 48 hrs by MTS assay
Assay [25] addresses T4, Serine/threonine-protein kinase pim-1. Briefly: Inhibition of human recombinant PIM-1 expressed in bacteria using histone H1 as substrate incubated for 30 mins in presence of ATP by ADP-Glo kinase assay.
Target sequence in this assay (P11309 whole entry): as the sequence (P11309 whole entry, looked up) above
Assay [26] is described as follows: Selectivity index, ratio of IC50 for recombinant mouse CLK1 expressed in bacteria to IC50 for recombinant human Haspin kinase domain (470 to 798 residues) expressed in bacteria.

T3 sequence (Q00535 whole entry): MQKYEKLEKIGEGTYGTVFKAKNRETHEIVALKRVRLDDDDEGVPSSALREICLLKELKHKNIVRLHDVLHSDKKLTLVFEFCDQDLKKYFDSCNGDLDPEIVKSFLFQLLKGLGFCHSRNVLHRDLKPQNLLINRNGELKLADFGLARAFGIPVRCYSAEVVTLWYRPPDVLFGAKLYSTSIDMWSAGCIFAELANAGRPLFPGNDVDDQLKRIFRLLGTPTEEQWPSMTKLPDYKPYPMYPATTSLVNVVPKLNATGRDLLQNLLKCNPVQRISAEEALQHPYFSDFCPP
T3 sequence (Q15078 99-307 partner limits assumed): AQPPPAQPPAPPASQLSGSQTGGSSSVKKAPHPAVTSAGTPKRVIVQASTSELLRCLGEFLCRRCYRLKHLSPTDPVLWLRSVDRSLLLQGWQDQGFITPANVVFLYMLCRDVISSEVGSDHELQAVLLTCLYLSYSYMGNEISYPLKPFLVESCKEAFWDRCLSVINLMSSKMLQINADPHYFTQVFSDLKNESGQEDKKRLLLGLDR
Description for HBL-100: Antiproliferative activity against human HBL-100 cells assessed as reduction in cell viability incubated for 48 hrs by MTS assay
Description for HCT-116: Antiproliferative activity against human HCT-116 cells assessed as reduction in cell viability incubated for 48 hrs by MTS assay
Description for SH-SY5Y: Antiproliferative activity against human SH-SY5Y cells assessed as reduction in cell viability incubated for 48 hrs by MTS assay
Description for TERT-RPE1: Cytotoxicity against human TERT-RPE1 cells assessed as reduction in cell viability incubated for 48 hrs by MTS assay

Regarding `O=Cc1c[nH]c2cc3cnccc3cc12`, the IC50 in [1] stood at 0.158 µM; in assay [4] it was 0.182 µM; in assay [7], 0.495 µM; on CDK9/cyclin T1, 0.151 µM. The Activity in [2] was determined as 26%; in [3], 53%; in [5], 7%; in [6] it was 21%; in assay [8], 7%; in assay [9], 7%. The Activity was 23% in assay [10]; 55% in [11]; 34% in assay [12]; 80% in [13]; 57% in [14]; 84% in assay [15]. For the same compound, the Activity came to 33% in assay [16] and 64% in [17]. For the same compound, in the assay listed under Homo sapiens, the Ratio IC50 is 0.96.

Consider `N#Cc1c[nH]c2cc3cnccc3cc12`, for which the concentration for half-maximal inhibition (IC50) worked out at 0.075 µM in [1], 0.36 µM in assay [4], 0.182 µM in assay [7] and 0.178 µM at CDK9/cyclin T1. Besides, the Activity in assay [2] turned out to be 0%; in [3], 19%; in [5], 5%; in assay [6], 38%; in assay [8] it was 6%; in [9] it was 34%. In addition, the Activity in assay [10] is 26%; in [11] it was 59%; in assay [12], 47%; in assay [13] it was 92%; in [14], 34%; in assay [15], 69%. In addition, the Activity in [16] was determined as 95%; in assay [17] it was 100%. Besides, in the assay listed under Homo sapiens, the Ratio IC50 came out at 2.4.

On to `CCn1ncc2cc3cnccc3c(N)c21`, for which the Activity in [2] was 8%; in assay [3] it was 34%; in assay [5] it was 6%; in assay [6], 23%; in assay [8], 50%; in assay [9], 80%. The Activity stood at 42% in assay [10]; 82% in assay [11]; 48% in assay [12]; 84% in assay [13]; 28% in assay [14]; 65% in assay [15]. The Activity in assay [16] worked out at 60%; in assay [17], 91%; in the assay with U2OS [18], 44%; in the assay on U2OS [19], 40%; in the assay with U2OS [20], 16%; in the assay with U2OS [21] it was 32%. The Activity was 43% in the assay with U2OS [22] and 25% in the assay on U2OS [23]. For the same compound, the EC50 with TERT-RPE1 was determined as 0.3 µM; in the assay with HBL-100, 7.3 µM; in the assay on HCT-116, 1.2 µM; in the assay with SH-SY5Y, 1.2 µM; in the assay on U2OS [24] it was 2.7 µM.

For the compound `Nc1nccc(-c2c[nH]c3cc4cnccc4cc23)n1`, the half-inhibitory concentration (IC50) in assay [1] was 0.122 µM; in assay [4], 0.205 µM; in [7], 0.56 µM; in assay [25], 0.225 µM. The Activity in assay [2] was 5%; in [3] it was 16%; in assay [5], 0%; in [6], 25%; in assay [8], 16%; in [9], 56%. The Activity was determined as 35% in assay [10]; 76% in assay [11]; 10% in [12]; 46% in assay [13]; 21% in [14]; 79% in assay [15]. Besides, the Activity in assay [16] was determined as 4%; in assay [17], 20%. Moreover, the Ratio IC50 in assay [26] turned out to be 1.7.

What is called IC50 is the point on the concentration scale where inhibition reaches its midpoint. One may read the EC50 as the midpoint of the concentration-response curve. Read a low EC50 as higher potency in that assay.
